Results from PubChem BioAssay AID1996.
≈ marks a conversion by molar mass, not a printed value.

conditions: buffer; pH 7.4; 200.0 µM

Point of comparison: `OCC1(Cc2ccccc2)CCN(Cc2cccc(F)c2F)CC1`, solubility kinetic 43 µg/mL (≈ 130 µM). Against it:
- COc1ccc(CNc2ccc(C)c(C)c2)cc1 — 29-fold lower, 1.5 µg/mL (≈ 6.22 µM)
- Cc1cc2nc(NCCCO)n(CC(=O)c3cc(C(C)(C)C)c(O)c(C(C)(C)C)c3)c2cc1C — 86-fold lower, 0.5 µg/mL (≈ 1.07 µM)
- COc1cccc(CNC(=O)CC2Sc3ccccc3NC2=O)c1 (centres undefined) — 29-fold lower, 1.5 µg/mL (≈ 4.38 µM)
- O=[N+]([O-])c1cccc(CN2CCCCCC2)c1 — within 1.5-fold, 31.7 µg/mL (≈ 135 µM)
- O=S(=O)(Nc1cccc(S(=O)(=O)N2CCCC2)c1)c1ccccc1F — higher, > 57.7 µg/mL
- C=CCOc1ccc(C2NC(=O)c3ccccc3O2)cc1OCC (centres undefined) — 17-fold lower, 2.6 µg/mL (≈ 7.99 µM)
- CCC(=O)c1cn(CC(=O)Nc2c(C)cccc2C)c2ccccc12 — lower, < 0.4 µg/mL
- CC(C)NCc1cc(Br)ccc1OCc1ccccc1.Cl — higher, > 55.6 µg/mL
- Cc1ccc(C(=O)Nc2ccc(N3CCN(C)CC3)cc2)cc1 — higher, > 46.4 µg/mL
- O=C(Cn1cnc([N+](=O)[O-])c1)Nc1ccc(F)c(Cl)c1 — 8.6-fold lower, 5 µg/mL (≈ 16.7 µM)
- NC(=O)CCC(NC(=O)c1ccc(Cl)cc1)C(=O)O (centres undefined) — not separable, > 42.7 µg/mL
- Cc1ccc(OC(F)F)c(N2C(=O)C3C4CCC(O4)C3C2=O)c1 (centres undefined) — higher, > 48.5 µg/mL
- COc1ccccc1C(C)NC(=O)CCOc1cccc(C)c1 (centres undefined) — 18-fold lower, 2.4 µg/mL (≈ 7.66 µM)
- Cc1cc(NC(=O)CSc2cc(C)c3ccccc3n2)no1 — 20-fold lower, 2.2 µg/mL (≈ 7.02 µM)
- Cn1ncc([N+](=O)[O-])c1C(=O)N1CCCCCC1 — not separable, > 37.8 µg/mL
- Cc1ccc(C(=O)NCCNC(=O)c2cccnc2)cc1 — within 1.5-fold, 40 µg/mL (≈ 141 µM)
- N#C/C(=C\c1ccccc1Br)C(=O)NC1CC1 — higher, > 43.7 µg/mL
- Cc1cc(C)c[n+](C(C)C(=O)c2ccc(Cl)cc2)c1.[Br-] (centres undefined) — higher, > 53.2 µg/mL
- CC1C(=O)NC(=O)C1c1ccccc1 (centres undefined) — not separable, > 28.4 µg/mL
- Cc1cccnc1NC(=O)C(C)N1C(=O)c2ccccc2C1=O (centres undefined) — higher, > 46.4 µg/mL
- CCC(OC(=O)c1ccco1)C(=O)NCc1ccc(OC)cc1 (centres undefined) — higher, > 47.6 µg/mL
- Nc1c(C(=O)Nc2ccccc2)sc2ncc([N+](=O)[O-])cc12 — lower, < 0.2 µg/mL
- CSc1ccc(S(=O)(=O)N2c3ccccc3CC2C)cc1 (centres undefined) — 25-fold lower, 1.7 µg/mL (≈ 5.32 µM)
- CN(C(=O)COC(=O)c1ccccc1C(=O)c1ccccc1)c1ccccc1 — within 1.5-fold, 42.7 µg/mL (≈ 114 µM)
- O=C1NC(=O)C(C(CC(=O)c2ccccc2)c2ccccc2)C(=O)N1 (centres undefined) — higher, > 50.5 µg/mL
- Cc1ccc(-c2nc(CN(C)C3CCOC3)c(C)o2)s1 (centres undefined) — higher, > 43.9 µg/mL
- COc1ccc(NC(=O)CN2C(=O)C(=O)N(C3CCCC3)C2=O)c(OC)c1 — higher, > 56.3 µg/mL
- Cn1cc(S(=O)(=O)c2ccccc2)n(C)c1=O — within 1.5-fold, 31 µg/mL (≈ 123 µM)
- CCNC(=O)C12CCC(C)(C(=O)O1)C2(C)C (centres undefined) — within 1.5-fold, 31.8 µg/mL (≈ 141 µM)
- CC(C)(C)OC(=O)NCCC(=O)N/N=C/c1cccc2cccnc12 — higher, > 51.4 µg/mL
- O=C(Nc1nc2c(Cl)cccc2s1)C1CC1 — 33-fold lower, 1.3 µg/mL (≈ 5.14 µM)
- CC1COc2ccccc2N1C(=O)c1cccnc1Cl (centres undefined) — higher, > 43.3 µg/mL
- CC(NC(=O)c1ccco1)c1ccc2c(c1)OCO2 (centres undefined) — not separable, > 38.9 µg/mL
- Cc1ccc(/C=C2\SC(=S)N(C3CCS(=O)(=O)C3)C2=O)cc1 (centres undefined) — lower, < 0.8 µg/mL
- Cc1cccc(C)c1NC(=O)c1c(O)c2ccccc2[nH]c1=O — 86-fold lower, 0.5 µg/mL (≈ 1.62 µM)
- O=C(O)c1cc(-c2ccco2)nc2cc3ccccc3cc12 — higher, > 43.4 µg/mL
- O=C(O)c1cccc(S(=O)(=O)N2CCN(c3ccccn3)CC2)c1 — higher, > 52.1 µg/mL
- CCN1CSC(=S)N(Cc2ccc(OC)cc2)C1 — within 1.5-fold, 38.6 µg/mL (≈ 137 µM)
- COc1ccc(NC(=O)c2sc3nc(C)cc(C)c3c2N)c(OC)c1 — lower, < 0.3 µg/mL
- O=C(O)C1CCCCC1C(=O)Nc1ccc(OCc2ccccc2)cc1 (centres undefined) — within 1.5-fold, 44.2 µg/mL (≈ 125 µM)
- CC(=O)Nc1ccc(S(=O)(=O)NCCC(=O)Nc2ncccc2C)cc1 — higher, > 56.5 µg/mL
- O=C(Cn1cc([N+](=O)[O-])ccc1=O)NCc1ccc(Cl)cc1Cl — 23-fold lower, 1.9 µg/mL (≈ 5.33 µM)
- Cc1nc2ccccn2c1C(=O)C(=O)Nc1cc(F)ccc1F — 11-fold lower, 4 µg/mL (≈ 12.7 µM)
- Fc1ccc(COc2ccc(C(=S)N3CCCC3)cc2)cc1 — lower, < 0.7 µg/mL
- Cc1cccc(C)c1N1C(=O)CCC(C)(C)C1=O — not separable, > 36.8 µg/mL
- CSc1ccccc1C(=O)Nc1cccc([N+](=O)[O-])c1 — 1.5-fold lower, 28.2 µg/mL (≈ 97.8 µM)
- CC(Sc1nc2c(c(=O)[nH]1)CCCC2)C(=O)Nc1ccccc1C#N (centres undefined) — within 1.5-fold, 46.1 µg/mL (≈ 130 µM)
- N#Cc1sc2nccc(Nc3ccccc3)c2c1N — lower, < 0.1 µg/mL
- COc1cccc(N/C(N)=N/c2nc(C)cc(=O)[nH]2)c1 — within 1.5-fold, 40.6 µg/mL (≈ 149 µM)
- COc1ccc(NC(=O)N2CCc3ccccc3C2)c(OC)c1 — within 1.5-fold, 42.3 µg/mL (≈ 135 µM)
- O=C(COC(=O)c1ccccn1)NCCc1ccc(Cl)cc1 — higher, > 47.8 µg/mL
- CC(=O)c1cc2c(cc1NS(=O)(=O)c1ccc(F)cc1)OCO2 — lower, < 0.7 µg/mL
- CCOC(=O)C1CCN(C(=O)COC(=O)/C=C/c2ccc([N+](=O)[O-])cc2)CC1 — 2.3-fold lower, 18.7 µg/mL (≈ 47.9 µM)
- CCc1ccc(C(=O)COC(=O)c2cnc(C)cn2)cc1 — not separable, > 42.6 µg/mL
- Cc1cc(C)nc(NC(=O)c2ccc(C)o2)n1 — not separable, > 34.7 µg/mL
- Cc1csc(/N=C/N(C)C)c1C#N — 1.5-fold lower, 28 µg/mL (≈ 145 µM)
- O=C(CSC(=S)N1CCCC1)NCCc1ccccc1 — higher, > 46.3 µg/mL
- COC(=O)c1cc(COC(=O)c2nc3nc(C)cc(C)n3n2)oc1C — higher, > 51.6 µg/mL
- CC(CCc1ccccc1)NS(=O)(=O)c1ccccc1Cl (centres undefined) — 2.1-fold lower, 20 µg/mL (≈ 61.8 µM)
- COc1ccc(-n2c(C)nnc2SCC(=O)NC2CC2)cc1 — higher, > 47.8 µg/mL
- Cc1ccc(C(=O)NC2CC3CCC(C2)N3)cc1 (centres undefined) — not separable, > 36.7 µg/mL
- COCc1nnc(NC(=O)CCS(=O)(=O)c2ccccc2)s1 — higher, > 51.2 µg/mL
- CCC1(c2ccccc2)C(=O)NCNC1=O — not separable, > 32.7 µg/mL
- O=CN1CCN(S(=O)(=O)c2ccc(Cl)c(C(=O)O)c2)CC1 — higher, > 49.9 µg/mL
- Cc1noc(-c2ccccc2)c1NC(=O)Nc1ccccc1 — higher, > 44 µg/mL
- O=c1[nH]c(O)c(C=Nc2ccc(F)c(Cl)c2)c(=O)[nH]1 — 3.1-fold lower, 14 µg/mL (≈ 49.4 µM)
- CCOC(=O)C1=C(COC(=O)COc2ccccc2C=O)NC(=O)NC1C (centres undefined) — higher, > 56.5 µg/mL
- Brc1ccccc1Cn1cnc2ccccc21 — 1.5-fold lower, 27.8 µg/mL (≈ 96.8 µM)
- O=C(CSc1nc2c(c(=O)[nH]1)CCC2)Nc1cccc(F)c1 — 3.5-fold lower, 12.2 µg/mL (≈ 38.2 µM)
- CCN(c1ccccc1)S(=O)(=O)c1ccc2ccccc2c1 — 8.8-fold lower, 4.9 µg/mL (≈ 15.7 µM)
- Cc1ccnc(S(=O)(=O)Cc2ccc([N+](=O)[O-])cc2)n1 — higher, > 44 µg/mL
- O=C(CCCC(=O)c1ccccc1)NCCc1ccccc1 — higher, > 44.3 µg/mL
- Cc1cccc(S(=O)(=O)Nc2nc3ccccc3nc2OC(C)C)c1 — 14-fold lower, 3.1 µg/mL (≈ 8.67 µM)
- COc1ccc2c(c1OC)C(=O)N(c1ccc(F)cc1)C2 — 11-fold lower, 3.8 µg/mL (≈ 13.2 µM)
- Cc1ccc(NS(=O)(=O)c2ccc(NC(=O)c3ccccc3C(=O)O)cc2)c(C)c1 — higher, > 63.7 µg/mL
- Nc1ncccc1C(=O)OCC(=O)NC1CCCCCC1 — within 1.5-fold, 38 µg/mL (≈ 130 µM)
- OCc1ccccc1N=Cc1cccnc1 — not separable, > 31.8 µg/mL
- CC(NS(=O)(=O)c1ccccc1Cl)C1CC2CCC1C2 (centres undefined) — 39-fold lower, 1.1 µg/mL (≈ 3.5 µM)
- COc1ccc(NC(=O)c2ccc3[nH]c(C)c(C)c3c2)cc1 — 12-fold lower, 3.6 µg/mL (≈ 12.2 µM)
- Cc1ccc(S(=O)(=O)NCc2ccc3c(c2)OCO3)cc1C — 8.6-fold lower, 5 µg/mL (≈ 15.7 µM)
- O=C1C(Cl)=C(N2CCCCCC2)C(=O)N1c1ccccc1Cl — 1.7-fold lower, 25.7 µg/mL (≈ 75.8 µM)
- COc1ccc2nc(NC(=O)c3ccc(F)cc3)sc2c1 — lower, < 0.3 µg/mL
- CN(CC(=O)Nc1c(Cl)cccc1Cl)C(=O)CCC1CCCC1 — within 1.5-fold, 53.4 µg/mL (≈ 149 µM)
- COc1ccc(NS(=O)(=O)c2ccc(C(=O)N(C)Cc3ccc(C)o3)cc2)cc1 — within 1.5-fold, 61.1 µg/mL (≈ 147 µM)
- O=C(Nc1ccc(NC(=O)C2CCCCC2)nc1)c1cccc(F)c1 — 36-fold lower, 1.2 µg/mL (≈ 3.52 µM)
- CC1CCCN(C(=O)c2ccc(-c3ccccc3Cl)o2)C1 (centres undefined) — 4.3-fold lower, 10 µg/mL (≈ 32.9 µM)
- Cc1ccc(C(=O)OCC(=O)NC(=O)Cc2ccccc2)c(O)c1 — 3.6-fold lower, 12 µg/mL (≈ 36.7 µM)
- O=C(CC1SC(=Nc2ccc(O)cc2)NC1=O)Nc1ccccc1 (centres undefined) — 11-fold lower, 3.9 µg/mL (≈ 11.4 µM)
- Cn1c(SCc2ccc(Br)cc2)nc2c(c1=O)SCC2 — lower, < 0.4 µg/mL
- O=[N+]([O-])c1ccc(C2CCCC/C2=N/O)c([N+](=O)[O-])c1 (centres undefined) — 4.9-fold lower, 8.8 µg/mL (≈ 31.5 µM)
- CCOC(Cn1ccc(=O)[nH]c1=O)OCC — not separable, > 34.2 µg/mL
- CC(NC(=O)COC(=O)c1cccc(S(=O)(=O)N2CCCC2)c1)c1ccccc1 (centres undefined) — 3.6-fold lower, 11.8 µg/mL (≈ 28.3 µM)
- NCCSc1c(-c2ccc(Cl)cc2)[nH]c2ccccc12 — higher, > 45.4 µg/mL
- CCCc1nc2cc(Cl)c([N+](=O)[O-])cc2o1 — 8.6-fold lower, 5 µg/mL (≈ 20.8 µM)
- CCOC(=O)c1c(C)nc(C)c(C(=O)OCC)c1-c1ccco1 — higher, > 47.6 µg/mL
- CCOc1ccc(N2C(=O)CC(NCC#N)C2=O)cc1 (centres undefined) — not separable, > 41 µg/mL
- CNC(=O)CN1C(=O)NC(c2ccccc2)(c2ccccc2)C1=O — higher, > 48.5 µg/mL
- O=[N+]([O-])c1cccc(S(=O)(=O)N2CCCCC2)c1 — within 1.5-fold, 37.5 µg/mL (≈ 139 µM)
- COc1ccc(OCCn2c(N)nc3ccccc32)cc1 — not separable, > 42.5 µg/mL
- CCOc1ccc(S(=O)(=O)N2CCCCC2)c(C)c1C — 4.4-fold lower, 9.7 µg/mL (≈ 32.6 µM)
- O=C(O)CCCCCNC(=O)OCC1c2ccccc2-c2ccccc21 — 13-fold lower, 3.4 µg/mL (≈ 9.62 µM)
- CC(=O)Nc1ccc(S(=O)(=O)NCCCN2CCOCC2)cc1 — within 1.5-fold, 46.3 µg/mL (≈ 136 µM)
- N#Cc1ccc2c(c1)NC(=O)C1CCCN21 (centres undefined) — 1.5-fold lower, 27.8 µg/mL (≈ 130 µM)
- CCOc1ccc(/C=C2\SC(=S)N(C)C2=O)cc1OC — lower, < 0.7 µg/mL
- COc1ccccc1C1CCN(Cc2cccc3ccccc23)CC1 — lower, < 0.7 µg/mL
- Cc1cc(S(=O)(=O)N2CCCCC2)c(C)s1 — not separable, > 38.9 µg/mL
- CN(C(=O)c1ccc2c(c1)CCO2)C(C)(C)C — 1.8-fold lower, 23.9 µg/mL (≈ 102 µM)
- O=C(NCc1ccc(F)cc1)C(c1ccccc1)c1ccccc1 — lower, < 0.7 µg/mL
- CCn1c(Oc2ccccc2C)nc2c1c(=O)n(C)c(=O)n2C — higher, > 47.2 µg/mL
- COC(=O)N1c2ccccc2CCc2ccccc21 — within 1.5-fold, 36.6 µg/mL (≈ 144 µM)
- Cc1nc2ccc(OC(=O)c3ccccc3)cc2s1 — 15-fold lower, 2.9 µg/mL (≈ 10.8 µM)
- Cc1nc2sc(C(=O)c3ccccc3)c(N)c2c(C)c1C — lower, < 0.3 µg/mL
- CC(=O)Nc1cccc(NC(=O)COc2ccccc2C)c1 — higher, > 44.8 µg/mL
- CC1CCc2sc(C(=O)NC(C)C3CCCO3)cc2C1 (centres undefined) — higher, > 44 µg/mL
- CC1(C)Oc2ccc(C(=O)NC3CCCCC3)cc2N(CC#N)C1=O — 3.3-fold lower, 12.9 µg/mL (≈ 37.8 µM)
- Cc1ccc(S(=O)(=O)N2CCOCC2)s1 — not separable, > 37.1 µg/mL
- CC1CCCCC1NC(=O)c1ccc(-n2cncn2)cc1 (centres undefined) — not separable, > 42.7 µg/mL
- NC(=NC(=O)c1ccc(OC(F)(F)F)cc1)c1ccc(C(F)(F)F)cn1 — lower, < 0.3 µg/mL
